Experimental data as given in US11559522B2, “Methods for enhancing liver regeneration” (The Trustees of the University of Pennsylvania, priority 2016, dated 2023).
Entries after “also recorded” stand apart in the source; their conditions may differ.

How the values were obtained:
hepatocyte = settings: cited from earlier work
[1] = test system: hepatocyte-specific Nampt deficient mice; assay: Partial hepatectomy in hepatocyte-specific Nampt deficient mice (AAV-Cre) and AAV-Gfp littermate controls, with NR; type: in vivo, mouse; settings: for Liver regeneration (EdU positive hepatocytes, liver to body weight ratio): first 48 hours after PHx, NR ~500 mg/kg/day
Description: (§1) Animals, housing and drug treatment: Mice overexpressing Nampt in hepatocytes were obtained by crossing animals carrying an exogenous copy of the Nampt cDNA separated from the CAGGS promoter by a foxed stop cassette that were backcrossed to the C57BL/6J background (as described previously^7), with mice carrying Albumin-Cre (JAX strain B6.Cg-Tg(Alb-cre)21Mgn/J, stock number 003574). Littermates lacking Albumin Cre were used as controls. For studies on the adult onset of Nampt overexpression, 8-9 week old male Nampt^fl/fl and Nampt^wt/wt mice were injected with adeno-associated virus in the retroorbital plexus expressing either Cre recombinase (AAV-Cre) or enhanced green fluorescent protein (AAV-Gfp) under the control of thyroxine-binding globulin (Tbg) promoter (AAV-Cre). Nampt^fl/fl mice injected with AAV-Gfp and Namp^wt/wt injected with AAV-Cre served as controls. For inducible deletion of Nampt, mice originally created by Oberdan Leo at Université de Liège and backcrossed to the C57/BL6 background were employed and generously provided by Shin-Ichiro Imai at Washington University. As above, 8-9 week old male mice bearing two floxed alleles were injected retroorbitally with adeno-associated virus expressing either Cre recombinase (AAV-Cre) or enhanced green fluorescent protein (AAV-Gfp) under the control of thyroxine-binding globulin (Tbg) promoter. Fasting blood glucose was measured and partial hepatectomies were performed at >14 days after AAV infection in both the adult onset overexpression and liver-specific knock out cohorts. Animals were housed in groups of 4-5 mice/cage in pathogen-free barrier facility in a 12 h light-dark cycle with free access to food and water. For experiments containing only wild type animals, male C57BL/6J mice were ordered directly from Jackson Labs. For nicotinamide riboside (NR) (Chromadex Inc.) supplementation experiments, NR was dissolved in the drinking water at 3.0 mg/ml in light-protected bottles and was changed every 3 days. For fasting and re-feeding experiments, animals were fasted for 16 h with access to water ad libitum in cages containing Alpha-dri bedding. All animal work was performed in accordance with the U.S. Department of Health and Human Services Guide for the Care and Use of Laboratory Animals and with the approval of the University of Pennsylvania Institutional Animal Care and Use Committee.
(§2) Partial hepatectomy: 10-14 week old male transgenic mice underwent partial hepatectomy (PHx) according to the protocol of Mitchell and Willenbring between 8 AM and noon. Briefly, after isofluorane anesthesia, a ventral midline incision was made. Then the median and left lateral lobes, comprising 70% of the liver, were resected by pedicle ligation. For EdU (5-ethynyl-2′-deoxyuridine) labeling (Molecular probes), mice were injected intraperitoneally with the labeling reagent at a dose of 16 mg/kg, 5 h before sacrifice. Animals were sacrificed at 36 h or 48 h after PHx, as indicated. The resected and regenerating livers were snap frozen in liquid nitrogen, fixed in 4% paraformaldehyde, embedded in OCT medium (Tissue-TEK O.C.T compound, Sakura), or rapidly frozen in pre-chilled metal clamps in liquid nitrogen for NAD and ATP assays. All surgical procedures involving mice were approved by the Institutional Animal Care and Use Committee protocols of the University of Pennsylvania.
(§3) Histology, Immunohistochemistry, and Immunofluoresence: Mitotic figures were counted in Hematoxylin and eosin stained slides. Paraffin embedded liver sections of 5 μm thickness were deparaffinized in Xylene followed by rehydration through a graded ethanol series were stained with Gill 3 hematoxylin (Thermo Scientific) and eosin (Sigma). Mitotically active areas were first screened under lower magnification. For quantification, total mitotic counts in 10 high power fields (40×) in the most mitotically active areas were considered. […]

wild-type C57BL/6J mice = assay: 2/3 partial hepatectomy (PHx) liver regeneration model, NR in the drinking water; type: in vivo, mouse
Description: as §1, §2, §3

Sirt1 knockout mice = assay: Partial hepatectomy in Sirt1 knockout mice and littermate controls, with NR; type: in vivo, mouse
Experimental: Partial hepatectomy: 10-14 week old male transgenic mice underwent partial hepatectomy (PHx) according to the protocol of Mitchell and Willenbring between 8 AM and noon. Briefly, after isofluorane anesthesia, a ventral midline incision was made. Then the median and left lateral lobes, comprising 70% of the liver, were resected by pedicle ligation. For EdU (5-ethynyl-2′-deoxyuridine) labeling (Molecular probes), mice were injected intraperitoneally with the labeling reagent at a dose of 16 mg/kg, 5 h before sacrifice. Animals were sacrificed at 36 h or 48 h after PHx, as indicated. The resected and regenerating livers were snap frozen in liquid nitrogen, fixed in 4% paraformaldehyde, embedded in OCT medium (Tissue-TEK O.C.T compound, Sakura), or rapidly frozen in pre-chilled metal clamps in liquid nitrogen for NAD and ATP assays. All surgical procedures involving mice were approved by the Institutional Animal Care and Use Committee protocols of the University of Pennsylvania. Histology, Immunohistochemistry, and Immunofluoresence: Mitotic figures were counted in Hematoxylin and eosin stained slides. Paraffin embedded liver sections of 5 μm thickness were deparaffinized in Xylene followed by rehydration through a graded ethanol series were stained with Gill 3 hematoxylin (Thermo Scientific) and eosin (Sigma). Mitotically active areas were first screened under lower magnification. For quantification, total mitotic counts in 10 high power fields (40×) in the most mitotically active areas were considered. Representative photomicrographs were taken at 400× magnification using a light microscope coupled with a digital image acquisition system. For immunofluorescent detection of Nampt expression in paraffin sections, antigens were retrieved in R-buffer (Electron Microscopy Sciences Ct #62706-10) followed by quenching and blocking in Cas-Block (Invitrogen 00-8120) for 20 min. Slides were then incubated overnight at 4° C. in humidified chamber with primary rabbit polyclonal anti-NAMPT antibody (Bethyl Laboratories, dilution 1:1000). Goat anti-rabbit IgG (Alexa Fluor 488) was used as secondary antibody at dilution of 1:600 and slides were counter-stained with DAPI (Vector laboratories). For quantification, cells were examined and imaged using a Zeiss Axioplan 2 imaging system under a 20× objective taking both the central and portal venous areas. Studies were performed to determine the ability of NR to improve liver regeneration in the context of Sirt1 deletion, which impairs this process. Sirt1 knockouts and littermate controls were treated with NR (500 mgs/Kg/day) for 2 weeks prior to partial hepatectomy (PHx). […] In another assay, liver regeneration during the first 36 hour post PHx was compromised in Sirt1 knockout mice and restored by NR treatment. […]

[2] = NR ~500 mg/kg, 48 hours post PHx
[3] = Sirt1 deficient mice, NR 500 mgs/Kg/day for 2 weeks prior to PHx

For Oc1ccc(/C=C/c2cc(O)cc(O)c2)cc1 [resveratrol], the Hepatocyte replication (hepatocyte) is given as “slow” and the “Hepatocyte survival in injury models” value (hepatocyte) is given as “improve”.
With NC(=O)c1ccc[n+]([C@@H]2O[C@H](CO)[C@@H](O)[C@H]2O)c1 [NR, nicotinamide riboside] the Mitotic index ([1]; Nampt KO mice, 48 hours after PHx) was “largely restored”, the “Liver regeneration (EdU positive hepatocytes, liver to body weight ratio)” value ([1]; Nampt KO mice) was “restored” and the “Liver regeneration (EdU positive hepatocytes, liver to body weight ratio)” value ([1]; Nampt KO mice, listed as nicotinamide riboside) was “completely rescued”. The “Reduction of hepatic triglycerides with NR treatment” value ([1]; Nampt fl/fl AAV-Cre mice, 48 hours after PHx) was ~35%, the “Petechial hemorrhage / pale regenerated livers (macroscopic)” value ([1]; Nampt fl/fl AAV-Cre mice, NR ~500 mg/kg/day 2 weeks prior to PHx, 48 hours) was “prevented” and the “Hepatic fatty changes in NAMPT deficient regenerating livers (histology)” value ([1]; Nampt fl/fl AAV-Cre, 48 hours after PHx) was “nearly normalized”. The “Reduction of hepatic triglycerides with NR treatment” value ([1]; Nampt fl/fl AAV-Gfp mice, 48 hours after PHx) was 75%, the “Liver NAD content” value ([1]; both genotypes (AAV-Gfp and AAV-Cre), before and after PHx) was “effectively increased” and the “Hepatic lipid accumulation in regenerating wild type livers (histology)” value ([1]; wild type (AAV-Gfp control) livers, 48 hours after PHx) was “abolished”. The “Increase of liver NAD content, pre hepatectomy” value (wild-type C57BL/6J mice; NR 3 mg/mL in drinking water (~500 mg/kg) for 14 days, pre PHx, vs control mice) was ~35%, the “Increase of liver NAD content, post hepatectomy” value (wild-type C57BL/6J mice; NR 3 mg/mL in drinking water (~500 mg/kg) from 14 days before PHx, 48 hours post PHx, vs control mice) was ~58% and the “Liver ATP levels” value (wild-type C57BL/6J mice; NR treated mice, pre or post hepatectomy, regenerating livers) was “enhanced”. For the same molecule, the “Fatty changes (hepatic steatosis, micro and macro vesicular lipid droplets, hepatic triglyceride accumulation)” value (wild-type C57BL/6J mice; [2]) was “almost completely absent; also recorded: not evident”, the “Hepatocyte proliferation (incorporation of EdU into DNA)” value (wild-type C57BL/6J mice; [2]) was “greatly enhanced” and the “Liver mass (liver to body weight ratio) after PHx” value (wild-type C57BL/6J mice; [2]) was “significant improvement”. The “Macroscopic appearance of regenerating livers” value (wild-type C57BL/6J mice; NR ~500 mg/kg, 48 hours post PHx, control livers pale, mottled) was “more uniformly colored”, the “Increase in mitotic activity (mitotic figures, H&E stained sections)” value (wild-type C57BL/6J mice; NR ~500 mg/kg, 48 hours post PHx, vs control) was 48% and the “Hepatic steatosis at 36 hours post-PHx” value (wild-type C57BL/6J mice; NR-treated mice, 36 hours post-PHx) was “Some steatosis was visible”. For the same molecule, the “Acute hepatic steatosis phenotype (H&E sections)” value (Sirt1 knockout mice; [3]) was “partially rescued”, the Hepatic fatty changes (Sirt1 knockout mice; [3]) was “attenuated” and the “Liver regeneration during the first 36 hour post PHx” value (Sirt1 knockout mice; Sirt1 knockout mice) was “restored”. The “Size of the regenerated livers compared to untreated livers” value (Sirt1 knockout mice; both wild type and Sirt1 knockout mice, 36 hour post PHx) was “increase”.
